Reference: publication PMC10377753, “Pharmacokinetic and pharmacodynamic properties of polymyxin B in Escherichia coli and Klebsiella pneumoniae murine infection models” (Journal of Antimicrobial Chemotherapy, 2023)
Counter-ions that a name gives are not always drawn. Bridge positions count the residues as written; N and C are the ends. Square brackets hold non-standard residues; d marks the D form. Peptide text beside a SMILES is read from it. * marks the point of attachment. X1 = CC[C@H](C)CCCCC(=O)*; Dab = NCC[C@H](N)C(=O)O

What was measured:
[1] = Plasma PK after single subcutaneous dose in infected neutropenic mice, population PK model; type: in vivo; conditions: for Time up to which plasma levels were detectable: LOQ 0.2 mg/L
Method: Mice were injected subcutaneously with a 0.1 mL single dose of polymyxin B 2 h after infection (t = 0). The PK of polymyxin B ranging between 0.5 and 64 mg/kg were determined in two mice per dose level. Mice were separated into two groups, with four dose levels studied in the thigh infection model (0.5, 2, 8, 32 mg/kg) and four dose levels studied in the lung infection model (1, 4, 16, 64 mg/kg). At t = 0, two mice were humanely euthanized to determine the bacterial load in the infected organ at the start of infection. At 10 different timepoints, blood was collected under isoflurane anaesthesia, in K3E EDTA tubes (Sarstedt, Nümbracht, Germany) through orbital sinus bleeding, which was immediately followed by cervical dislocation. The collected blood samples were centrifuged immediately at 15 871 RCF for 5 min at 4°C. Plasma was stored at −80°C until analysis.
Polymyxin B concentrations in plasma, BAL and ultrafiltrates were determined by a validated LC-MS/MS method,[18] with a lower limit of quantification (LOQ) of 0.2 mg/L for plasma and 0.05 mg/L for BAL fluid and ultrafiltrates. In this assay, 0.1 mL of plasma or 0.05 mL of BAL fluid or ultrafiltrates was added to 0.05 mL of drug-free plasma, and was mixed with 0.75 mL of phosphate buffer (pH 7.2) and 0.01 mL of internal standard (colistin sulphate, Merck KGaA, Darmstadt, Germany) at 6.25 mg/L for plasma and 5 mg/L for BAL fluid and ultrafiltrates. The samples were briefly vortexed and then centrifuged at 3000 rpm for 5 min. The supernatants (0.8 mL) were loaded onto solid-phase extraction columns (Oasis HLB solid-phase extraction cartridges, 1 mL, 30 mg, Waters, Saint-Quentin-en-Yvelines, France), preconditioned with 1 mL of methanol and followed by 1 mL of water. Columns were washed with 1 mL of water and dried under nitrogen pressure. The analytes were eluted with 0.5% formic acid in methanol and they were evaporated at 45°C under a gentle nitrogen jet stream. The residues were dissolved in 0.1 mL of 0.1% formic acid in water and analysed by LC-MS/MS. The system included an Alliance Waters 2695 LC system module (Waters) coupled with an API Quattro Micro (Waters). Polymyxin B was analysed on an XBridge C18 column (5 µm, 2.1 × 150 mm; Waters). The mobile phase A consisted of 0.1% formic acid in water, and mobile phase B was 0.1% formic acid in acetonitrile. The gradient for mobile phases A and B were respectively set at 75% and 25% with a flow rate of 0.2 mL/min. Electrospray ionization in positive mode was used for the detection of polymyxin B. Ions were analysed in the multiple reaction monitoring, and the following transitions were inspected: m/z 602.1→101 for polymyxin B1, m/z 595.1→101 for polymyxin B2, m/z 585.1→101 for CSTA and m/z 578.1→101 for CSTB. Calibration curves of polymyxin B ranged from 0.1 to 10 mg/L for plasma and ultrafiltrates, and were quantified with a quadratic regression mode. The intraday variability was characterized at four levels (0.3, 1, 2.5 and 10 mg/L) with a precision and bias of <20% for the lowest level, and <15% for the others.
A population PK model was developed using non-linear mixed-effects modelling (NONMEM, version 7.4.2 ICON Development Solutions, Ellicott City, MD, USA). The analysis was performed using the FOCE + I method on logarithmically transformed concentrations and data below the LOQ were omitted. Parameters were calculated for a virtual 1 kg mouse, resulting in pharmacokinetic parameters corresponding on a per kg base. In the first step a structural model was developed, using one- and two-compartment models. The absorption following subcutaneous injections was described using an absorption rate constant (ka). Typical values for central (Vc) and peripheral volume of distribution (Vp), CL and intercompartmental clearance (Q) were estimated. As bioavailability (F) could not be estimated, CL, Vc, Q, and Vp values corresponded to the ratios CL/F, Vc/F, Q/F and Vp/F, respectively. […]

plasma proteins = conditions: clinical studies; cited from earlier work
Method: A previously published population PK model[19] and Monte Carlo simulations was used to estimate the fAUCs of 5000 patients treated with 200 mg q24h (MicLab 2.71) taking into account protein-binding rates ranging from 36% to 98% as previously reported.[20–23] The PTA was calculated for isolates with MICs ranging from 0.25 to 4 mg/L. || In clinical studies, the protein binding of polymyxin B is much higher than reported in mice, with protein binding in plasma up to 99% for polymyxin B.[22],[26],[27] This applies to colistin as well.[5],[28] Therefore, the PK/PD targets based on the unbound fraction are necessary for translating PK/PD data of polymyxin B to the clinic.

For CC[C@H](C)CCCCC(=O)N[C@@H](CCN)C(=O)N[C@H](C(=O)N[C@@H](CCN)C(=O)N[C@H]1CCNC(=O)[C@H]([C@@H](C)O)NC(=O)[C@H](CCN)NC(=O)[C@H](CCN)NC(=O)[C@H](CC(C)C)NC(=O)[C@@H](Cc2ccccc2)NC(=O)[C@H](CCN)NC1=O)[C@@H](C)O [polymyxin B, Polymyxin B sulphate salt] (X1-[Dab]T[Dab][Dab][Dab][dF]L[Dab][Dab]T; lactam 4-C), the “ka, absorption rate constant for 10 mg/kg dose” value ([1]; infected neutropenic mice, single s.c. dose 0.5–64 mg/kg, plasma LC-MS/MS, population PK (NONMEM), one-compartment, first-order absorption) was 1.63 h⁻¹, the “Time up to which plasma levels were detectable” value ([1]; mouse, s.c., doses 16–64 mg/kg) was “up to 8 h” and the “Time up to which plasma levels were detectable” value ([1]; mouse, s.c., doses up to 8 mg/kg) was “up to 6 h”. The “Time to peak (Tmax)” value ([1]; mouse, s.c., thigh and lung infection model) was no more than 2 h, the CL/F ([1]; mouse, sc, 10 mg/kg, infected neutropenic mice, single s.c. dose 0.5–64 mg/kg, plasma LC-MS/MS, population PK (NONMEM), one-compartment, read-out: CL/F, clearance for 10 mg/kg dose (converted)) was 6.4 mL/min/kg and the Vd/F ([1]; mouse, sc, infected neutropenic mice, single s.c. dose 0.5–64 mg/kg, plasma LC-MS/MS, population PK (NONMEM), one-compartment, read-out: Vc/F, central volume of distribution) was 0.774 L/kg. The “Dose on CL, power on covariate effect of dose on CL” value ([1]; population PK model, CL = 0.384 × (DOSE/10)^−0.26) was −0.26, the “Dose on ka, power on covariate effect of dose on ka” value ([1]; population PK model, ka = 1.63 × (DOSE/10)^−0.407) was −0.407 and the “Protein binding in plasma” value (plasma proteins) was “up to 99%”.
